The values below are quoted from earlier work in paper doi:10.1101/435081v1 (bioRxiv, 2018).

This series has as its system Lb. sakei NCDO2714. To be noted: single peptide alone.

As for acidocin LF221A [Acd221A], the “Growth inhibition when alone” value was “inhibited the growth”.
Regarding acidocin LF221B [Acd221B], the “Growth inhibition when alone” value is “inhibited the growth”.
